The results in this text go back to patent US9624200B2, “Therapeutic piperazines” (DART NEUROSCIENCE (CAYMAN) LTD., priority 2006, dated 2017).

Molecules are shown by their SMILES.

The test system of this test is PDE4 from human U-937 cells. The test is described as follows: PDE4 Inhibition Assay. As to conditions: 1 μM cAMP, [3H]-cAMP, read-out: Potency Class (Inhibitory Concentration) in the PDE4 assay. Type of test: biochemical. As for the experimental part:
PDE4 from human U-937 cells was used (see T. J. Torphy, et al., J. Pharmacol. Exp. Ther., 1992, 263, 1195-1205). Test compound at various concentration and/or vehicle was preincubated with 2 μg/ml enzyme in Tris-HCl buffer pH 7.5 for 15 minutes at 25° C. The reaction was initiated by addition of 1 1 μM cAMP and 0.01 1 μM [^3H]-cAMP for another 20 minute incubation period and terminated at 100° C. The resulting [^3H]-AMP was converted to [^3H]-adenosine by addition of snake venom nucleotidase and separated by AG1-X2 resin. An aliquot was removed and counted to determine the amount of [^3H]-adenosine formed. Results were converted to percent inhibition and IC so determined using XLfit from IDBS (ID Business Solutions Ltd., 2 Occam Court, Surrey Research Park, Guildford, Surrey, GU2 7QB UK).
Representative compounds of the present invention were tested and found to have significant PDE4 inhibition in this assay.

`COc1ccc(N2CCN(C(=O)C(=O)c3ccco3)[C@@H](Cc3ccccc3)C2)cc1OC1CCCC1` [Compound 302, (S)-1-(2-benzyl-4-(3-(cyclopentyloxy)-4-methoxyphenyl)piperazin-1-yl)-2-(furan-2-yl)ethane-1,2-dione]: the IC50 was 200 to 1000 nM. Next, `COc1ccc(N2CCN(C(=O)Cc3n[nH]c(C)n3)[C@@H](Cc3ccccc3)C2)cc1OC(F)F` [Compound 346, (S)-1-(2-benzyl-4-(3-(difluoromethoxy)-4-methoxyphenyl)piperazin-1-yl)-2-(5-methyl-1H-1,2,4-triazol-3-yl)ethanone]: below 200 nM; `COc1ccc(N2CCN(C(=O)Cc3cccnc3)[C@@H](Cc3ccccc3)C2)cc1OC1CCCC1` [Compound 385, (S)-1-(2-benzyl-4-(3-(cyclopentyloxy)-4-methoxyphenyl)piperazin-1-yl)-2-(pyridin-3-yl)ethanone]: below 200 nM; `COc1ccc(N2CCN(C(=O)CCN)[C@@H](Cc3ccccc3)C2)cc1OC1CCC1` [Compound 274, (S)-3-amino-1-(2-benzyl-4-(3-cyclobutoxy-4-methoxyphenyl)piperazin-1-yl)propan-1-one]: above 1000 nM. Turning to `COc1ccc(N2CCN(C(=O)[C@H]3C[C@@H](O)CN3)[C@@H](Cc3ccccc3)C2)cc1OC1CCCC1` [Compound 279, ((S)-2-benzyl-4-(3-(cyclopentyloxy)-4-methoxyphenyl)piperazin-1-yl)((2R,4R)-4-hydroxypyrrolidin-2-yl)methanone], the IC50 is above 1000 nM. For `COc1ccc(N2CCN(C(=O)C3(O)CCC3)[C@@H](Cc3ccccc3)C2)cc1OC1CCCC1` [Compound 297, (S)-(2-benzyl-4-(3-(cyclopentyloxy)-4-methoxyphenyl)piperazin-1-yl)(1-hydroxycyclobutyl)methanone], the IC50 lay in the range of 200 to 1000 nM. In the case of `COc1ccc(N2CCN(C(C)=O)[C@@H](CN3CCOCC3)C2)cc1OC1CCCC1` [Compound 250, (S)-1-(4-(3-(cyclopentyloxy)-4-methoxyphenyl)-2-(morpholinomethyl)piperazin-1-yl)ethanone], the IC50 was above 1000 nM. As to `CCc1nn(C2CCC2)c2cc(N3CCN(C(=O)CN)[C@@H](Cc4ccccc4)C3)ccc12` [Compound 351, (S)-2-amino-1-(2-benzyl-4-(1-cyclobutyl-3-ethyl-1H-indazol-6-yl)piperazin-1-yl)ethanone], the IC50 is above 1000 nM. In the case of `COc1ccc(N2CCN(C(C)=O)[C@@H](CN3CCCC3)C2)cc1OC1CCCC1` [Compound 249, (S)-1-(4-(3-(cyclopentyloxy)-4-methoxyphenyl)-2-(pyrrolidin-1-ylmethyl)piperazin-1-yl)ethanone], the IC50 is above 1000 nM. With `COc1ccc(N2CCN(C(=O)COC(C)=O)[C@@H](Cc3ccccc3)C2)cc1OC1CCCC1` [Compound 284, (S)-2-(2-benzyl-4-(3-(cyclopentyloxy)-4-methoxyphenyl)piperazin-1-yl)-2-oxoethyl acetate], the IC50 is above 1000 nM. Regarding `COc1ccc(N2CCN(C(=O)CC(N)=O)[C@@H](Cc3ccccc3)C2)cc1OC1CCC1` [Compound 261, (S)-3-(2-benzyl-4-(3-cyclobutoxy-4-methoxyphenyl)piperazin-1-yl)-3-oxopropanamide], the IC50 is below 200 nM.

Take `COc1ccc(N2CCN(C(=O)c3ccc(CO)cc3)[C@@H](Cc3ccccc3)C2)cc1OC1CCCC1` [Compound 360, (S)-(2-benzyl-4-(3-(cyclopentyloxy)-4-methoxyphenyl)piperazin-1-yl)(4-(hydroxymethyl)phenyl)methanone]: the IC50 was above 1000 nM. In the case of `Cc1nc(CC(=O)N2CCN(c3ccc(OC(F)F)c(OC4CCCC4)c3)C[C@@H]2CC(C)C)n[nH]1` [Compound 374, (S)-1-(4-(3-(cyclopentyloxy)-4-(difluoromethoxy)phenyl)-2-isobutylpiperazin-1-yl)-2-(5-methyl-1H-1,2,4-triazol-3-yl)ethanone], the IC50 was below 200 nM.

Consider `COc1ccc(N2CCN(C(=O)Cc3c[nH]cn3)[C@@H](CC(C)C)C2)cc1OC1CCCC1` [Compound 364, (S)-1-(4-(3-(cyclopentyloxy)-4-methoxyphenyl)-2-isobutylpiperazin-1-yl)-2-(1H-imidazol-4-yl)ethanone], for which the IC50 was below 200 nM. Regarding `COc1ccc(N2CCN(C(=O)Cc3ncccn3)[C@@H](Cc3ccccc3)C2)cc1OC(C)C` [Compound 343, (S)-1-(2-benzyl-4-(3-isopropoxy-4-methoxyphenyl)piperazin-1-yl)-2-(pyrimidin-2-yl)ethanone], the IC50 was in the range of 200 to 1000 nM. Next, `COc1ccc(N2CCN(C(=O)Cc3ccco3)[C@@H](Cc3ccccc3)C2)cc1OC1CCC1` [Compound 314, (S)-1-(2-benzyl-4-(3-cyclobutoxy-4-methoxyphenyl)piperazin-1-yl)-2-(furan-2-yl)ethanone]: 200 to 1000 nM; `O=C(Cc1ncccn1)N1CCN(c2ccc(OC(F)F)c(OC3CCC3)c2)C[C@@H]1Cc1ccccc1` [Compound 356, (S)-1-(2-benzyl-4-(3-cyclobutoxy-4-(difluoromethoxy)phenyl)piperazin-1-yl)-2-(pyrimidin-2-yl)ethanone]: 200 to 1000 nM; `CCc1nn(C(C)C)c2cc(N3CCN(C(=O)Cc4nc(C)n[nH]4)[C@@H](Cc4ccccc4)C3)ccc12` [Compound 381, (S)-1-(2-benzyl-4-(3-ethyl-1-isopropyl-1H-indazol-6-yl)piperazin-1-yl)-2-(3-methyl-1H-1,2,4-triazol-5-yl)ethanone]: below 200 nM.

`COc1ccc(N2CCN(C(=O)Cc3n[nH]c(N)n3)[C@@H](Cc3ccccc3)C2)cc1OC1CCC1` [Compound 339, (S)-2-(5-amino-1H-1,2,4-triazol-3-yl)-1-(2-benzyl-4-(3-cyclobutoxy-4-methoxyphenyl)piperazin-1-yl)ethanone]: the IC50 was below 200 nM. Consider `COc1ccc(N2CCN(C(=O)CN3CC[C@H](O)C3)[C@@H](Cc3ccccc3)C2)cc1OC1CCCC1` [Compound 319, 1-((S)-2-benzyl-4-(3-(cyclopentyloxy)-4-methoxyphenyl)piperazin-1-yl)-2-((S)-3-hydroxypyrrolidin-1-yl)ethanone], for which the IC50 lay within 200 to 1000 nM. On to `CCc1nn(C2CCC2)c2cc(N3CCN(C(=O)Cc4n[nH]c(N)n4)[C@@H](Cc4ccccc4)C3)ccc12` [Compound 355, (S)-2-(5-amino-1H-1,2,4-triazol-3-yl)-1-(2-benzyl-4-(1-cyclobutyl-3-ethyl-1H-indazol-6-yl)piperazin-1-yl)ethanone], for which the IC50 is below 200 nM. The figure for `COc1ccc(N2CCN(C(C)=O)[C@@H](CN3CCc4ccccc4C3)C2)cc1OC1CCCC1` [Compound 253, (S)-1-(4-(3-(cyclopentyloxy)-4-methoxyphenyl)-2-((3,4-dihydroisoquinolin-2(1H)-yl)methyl)piperazin-1-yl)ethanone] is below 200 nM; for `COc1ccc(N2CCN(C(=O)Cc3n[nH]c([N+](=O)[O-])n3)[C@@H](Cc3ccccc3)C2)cc1OC1CCC1` [Compound 338, (S)-1-(2-benzyl-4-(3-cyclobutoxy-4-methoxyphenyl)piperazin-1-yl)-2-(5-nitro-1H-1,2,4-triazol-3-yl)ethanone] it is 200 to 1000 nM. The figure for `CC(C)C[C@H]1CN(c2ccc(OC(F)F)c(OC3CCCC3)c2)CCN1C(=O)Cc1c[nH]cn1` [Compound 366, (S)-1-(4-(3-(cyclopentyloxy)-4-(difluoromethoxy)phenyl)-2-isobutylpiperazin-1-yl)-2-(1H-imidazol-4-yl)ethanone] is 200 to 1000 nM.

Regarding `COc1ccc(N2CCN(C(=O)C3CCC(=O)N3)[C@@H](Cc3ccccc3)C2)cc1OC1CCCC1` (mixture of isomers) [Compound 285, (S)-5-(2-benzyl-4-(3-(cyclopentyloxy)-4-methoxyphenyl)piperazine-1-carbonyl)pyrrolidin-2-one], the IC50 lay in the range of 200 to 1000 nM.

In the case of `COc1ccc(N2CCN(C(=O)Cn3ccnn3)[C@@H](Cc3ccccc3)C2)cc1OC1CCCC1` [Compound 334, (S)-1-(2-benzyl-4-(3-(cyclopentyloxy)-4-methoxyphenyl)piperazin-1-yl)-2-(1H-1,2,3-triazol-1-yl)ethanone], the IC50 is above 1000 nM. Regarding `COc1ccc(N2CCN(C(=O)Cc3nc(C)n[nH]3)[C@@H](Cc3ccccc3)C2)cc1OC(C)C` [Compound 330, (S)-1-(2-benzyl-4-(3-isopropoxy-4-methoxyphenyl)piperazin-1-yl)-2-(3-methyl-1H-1,2,4-triazol-5-yl)ethanone], the IC50 is below 200 nM. Next, `COc1ccc(N2CCN(C(=O)Cc3n[nH]c([N+](=O)[O-])n3)[C@@H](Cc3ccccc3)C2)cc1OC(C)C` [Compound 336, (S)-1-(2-benzyl-4-(3-isopropoxy-4-methoxyphenyl)piperazin-1-yl)-2-(5-nitro-1H-1,2,4-triazol-3-yl)ethanone]: above 1000 nM; `COc1ccc(N2CCN(Cc3ccc(O)cc3)[C@@H](Cc3ccccc3)C2)cc1OC1CCCC1` [Compound 362, (S)-4-((2-benzyl-4-(3-(cyclopentyloxy)-4-methoxyphenyl)piperazin-1-yl)methyl)phenol]: above 1000 nM. As for `COc1ccc(N2CCN(C(=O)Cc3ccccn3)[C@@H](Cc3ccccc3)C2)cc1OC(C)C` [Compound 341, (S)-1-(2-benzyl-4-(3-isopropoxy-4-methoxyphenyl)piperazin-1-yl)-2-(pyridin-2-yl)ethanone], the IC50 fell in the range of 200 to 1000 nM.

Consider `CCc1nn(C2CCC2)c2cc(N3CCN(C(=O)CC(N)=O)[C@@H](Cc4ccccc4)C3)ccc12` [Compound 264, (S)-3-(2-benzyl-4-(1-cyclobutyl-3-ethyl-1H-indazol-6-yl)piperazin-1-yl)-3-oxopropanamide], for which the IC50 is below 200 nM.
